Experimental data as given in PubChem BioAssay (NCI).
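Five concentrations, 48 hours, 96-well plates. At the GI50, growth is halved. TGI: concentration producing complete growth inhibition.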

Tests used:
Assay in all cases: DTP human tumour cell line panel, 48 h
[1] = test system: TK-10 renal
[2] = test system: A549 NSCLC
[3] = test system: UACC-62 melanoma
[4] = test system: NCI-H226 lung
[5] = test system: IGROV1 ovarian
[6] = test system: K-562 leukemia
[7] = test system: NCI-H460 lung
[8] = test system: SN12C renal
[9] = test system: MDA-MB-435
[10] = test system: OVCAR-4 ovarian
[11] = test system: CAKI-1 renal
[12] = test system: UACC-257 melanoma
[13] = test system: M14 melanoma
[14] = test system: MALME-3M melanoma
[15] = test system: HS 578T breast
[16] = test system: NCI-H23 lung
[17] = test system: RXF 393 renal
[18] = test system: HCT-15 colon
[19] = test system: U251 CNS
[20] = test system: DU-145 prostate
[21] = test system: SK-OV-3 ovarian
[22] = test system: HCC-2998 colon
[23] = test system: SF-539 CNS
[24] = test system: OVCAR-3 ovarian
[25] = test system: BT-549 breast
[26] = test system: EKVX NSCLC
[27] = test system: HCT-116 colon
[28] = test system: NCI-H522 lung
[29] = test system: A498 renal
[30] = test system: OVCAR-8 ovarian
[31] = test system: MDA-N
[32] = test system: PC-3 prostate
[33] = test system: SF-295 CNS
[34] = test system: COLO 205 colon
[35] = test system: 786-0 renal
[36] = test system: ACHN renal
[37] = test system: NCI/ADR-RES ovarian
[38] = test system: LOX IMVI melanoma
[39] = test system: KM12 colon
[40] = test system: SK-MEL-5 melanoma
[41] = test system: SF-268 CNS
[42] = test system: HOP-62 NSCLC
[43] = test system: SR leukemia
[44] = test system: OVCAR-5 ovarian
[45] = test system: MCF7 breast
[46] = test system: HT29 colon
[47] = test system: SW-620 colon
[48] = test system: HL-60(TB) leukemia
[49] = test system: SK-MEL-2 melanoma
[50] = test system: MOLT-4 leukemia
[51] = test system: RPMI-8226 leukemia
[52] = test system: SK-MEL-28 melanoma
[53] = test system: HOP-92 NSCLC
[54] = test system: UO-31 renal
[55] = test system: T-47D breast
[56] = test system: SNB-75 CNS
[57] = test system: SNB-19 CNS
[58] = test system: CCRF-CEM leukemia
[59] = test system: MDA-MB-231 breast

SMILES: CC[C@H]1C=CCC[C@@]2(C[C@@H]3CC[C@H]4[C@@H](C(=O)OCCCCCCCCCCCCCCCC(=O)N(CCCN)C[C@@H](O)CCN)[C@@]5(CCC[C@@H](C)O5)NC(=[N+]34)N2)O1
- TGI [1]: 3.04 µM
- TGI [2]: 3.35 µM
- TGI [3]: 3.5 µM
- TGI [4]: 3.32 µM
- TGI [5]: 3.13 µM
- TGI [6]: 3.18 µM
- TGI [7]: 3.36 µM
- TGI [8]: 9.33 µM
- TGI [9]: 2.88 µM
- TGI [10]: > 10 µM
- TGI [11]: > 10 µM
- TGI [12]: 3.41 µM
- TGI [13]: 3.82 µM
- TGI [14]: 3.24 µM
- TGI [15]: 3.4 µM
- TGI [16]: 3.51 µM
- TGI [17]: 4.41 µM
- TGI [18]: > 10 µM
- TGI [19]: 3.05 µM
- TGI [20]: 3.61 µM
- TGI [21]: 3.19 µM
- TGI [22]: 3.12 µM
- TGI [23]: 2.78 µM
- TGI [24]: > 10 µM
- TGI [25]: 4.41 µM
- TGI [26]: 3.25 µM
- TGI [27]: 2.96 µM
- TGI [28]: 3.07 µM
- TGI [29]: 6.62 µM
- TGI [30]: 4.93 µM
- TGI [31]: 3.01 µM
- TGI [32]: 3.1 µM
- TGI [33]: 3.68 µM
- TGI [34]: 3.79 µM
- TGI [35]: 3.3 µM
- TGI [36]: > 10 µM
- TGI [37]: > 10 µM
- TGI [38]: 3.35 µM
- TGI [39]: 2.91 µM
- TGI [40]: 2.87 µM
- TGI [41]: 3.45 µM
- TGI [42]: 3.06 µM
- TGI [43]: 3.78 µM
- TGI [44]: 3.22 µM
- TGI [45]: 3.16 µM
- TGI [46]: 2.96 µM
- TGI [47]: 6.99 µM
- TGI [48]: 4.24 µM
- TGI [49]: 3.29 µM
- TGI [50]: 2.84 µM
- TGI [51]: 2.53 µM
- TGI [52]: 2.88 µM
- TGI [53]: 4.1 µM
- TGI [54]: > 10 µM

SMILES: COc1ccc(CN=C(N)N)c2ccccc12
- TGI [1]: > 100 µM
- TGI [2]: > 100 µM
- TGI [3]: > 100 µM
- TGI [4]: > 100 µM
- TGI [8]: 52.4 µM
- TGI [11]: > 100 µM
- TGI [12]: > 100 µM
- TGI [13]: > 100 µM
- TGI [14]: 34.7 µM
- TGI [15]: 54.9 µM
- TGI [16]: > 100 µM
- TGI [55]: > 100 µM
- TGI [17]: > 100 µM
- TGI [56]: 55.2 µM
- TGI [18]: > 100 µM
- TGI [19]: 74.7 µM
- TGI [20]: > 100 µM
- TGI [57]: > 100 µM
- TGI [21]: > 100 µM
- TGI [23]: 52.8 µM
- TGI [24]: > 100 µM
- TGI [26]: > 100 µM
- TGI [27]: > 100 µM
- TGI [28]: > 100 µM
- TGI [30]: > 100 µM
- TGI [31]: > 100 µM
- TGI [32]: > 100 µM
- TGI [33]: 36.7 µM
- TGI [34]: 38 µM
- TGI [35]: > 100 µM
- TGI [36]: > 100 µM
- TGI [37]: > 100 µM
- TGI [38]: > 100 µM
- TGI [39]: > 100 µM
- TGI [40]: 38 µM
- TGI [41]: 38.8 µM
- TGI [42]: > 100 µM
- TGI [44]: 73.4 µM
- TGI [58]: > 100 µM
- TGI [45]: > 100 µM
- TGI [46]: > 100 µM
- TGI [47]: > 100 µM
- TGI [48]: 91 µM
- TGI [49]: 86.9 µM
- TGI [50]: > 100 µM
- TGI [51]: > 100 µM
- TGI [52]: 86.5 µM
- TGI [54]: 87.9 µM

SMILES: CCCC(CCC)C(=O)OCC1(CO)C/C(=C\c2ccc(F)cc2)C(=O)O1 (stereo not drawn)
- GI50 [1]: 6.06 µM
- TGI [1]: 23.6 µM
- GI50 [2]: 3.66 µM
- TGI [2]: 21.5 µM
- GI50 [3]: 8.16 µM
- TGI [3]: 23.8 µM
- GI50 [4]: 11.7 µM
- TGI [4]: 32.3 µM
- GI50 [5]: 15.5 µM
- TGI [5]: 32.7 µM
- GI50 [6]: 0.374 µM
- TGI [6]: 18 µM
- GI50 [7]: 1.94 µM
- TGI [7]: 19.6 µM
- GI50 [8]: 12.4 µM
- TGI [8]: 26.4 µM
- GI50 [9]: 2.43 µM
- TGI [9]: 20.9 µM
- GI50 [10]: 13.9 µM
- TGI [10]: 28.4 µM
- GI50 [11]: 7.28 µM
- TGI [11]: 27.4 µM
- GI50 [12]: 14.7 µM
- TGI [12]: 28.7 µM
- GI50 [13]: 8.45 µM
- TGI [13]: 24.8 µM
- GI50 [14]: 12.1 µM
- TGI [14]: 27.2 µM
- GI50 [15]: 14.3 µM
- TGI [15]: 43.5 µM
- GI50 [16]: 12.4 µM
- TGI [16]: 26.7 µM
- GI50 [55]: 13.2 µM
- TGI [55]: 30.1 µM
- GI50 [17]: 15.6 µM
- TGI [17]: 36.6 µM
- GI50 [56]: 7.99 µM
- TGI [56]: 22.8 µM
- GI50 [18]: 12.5 µM
- TGI [18]: 26.2 µM
- GI50 [19]: 8.07 µM
- TGI [19]: 23.4 µM
- GI50 [20]: 12.7 µM
- TGI [20]: 25.7 µM
- GI50 [57]: 18.2 µM
- TGI [57]: 32.2 µM
- GI50 [21]: 19.5 µM
- TGI [21]: 33.9 µM
- GI50 [22]: 6.73 µM
- TGI [22]: 19.8 µM
- GI50 [23]: 12 µM
- TGI [23]: 24.4 µM
- GI50 [24]: 17.1 µM
- TGI [24]: 31.2 µM
- GI50 [25]: 7.25 µM
- TGI [25]: 22.6 µM
- GI50 [26]: 7.67 µM
- TGI [26]: 34.3 µM
- GI50 [27]: 13.6 µM
- TGI [27]: 27.1 µM
- GI50 [28]: 14.5 µM
- TGI [28]: 30.4 µM
- GI50 [29]: 1.46 µM
- TGI [29]: 12.4 µM
- GI50 [30]: 17.9 µM
- TGI [30]: 37 µM
- GI50 [32]: 10.4 µM
- TGI [32]: 25 µM
- GI50 [33]: 1.99 µM
- TGI [33]: 17.4 µM
- GI50 [34]: 0.545 µM
- TGI [34]: 8.74 µM
- GI50 [35]: 10.5 µM
- TGI [35]: 23.8 µM
- GI50 [36]: 9.32 µM
- TGI [36]: 23.4 µM
- GI50 [37]: 13.9 µM
- TGI [37]: 33.4 µM
- GI50 [38]: 11.2 µM
- TGI [38]: 24.5 µM
- GI50 [39]: 13.9 µM
- TGI [39]: 27.5 µM
- GI50 [40]: 0.829 µM
- TGI [40]: 17 µM
- GI50 [41]: 13.2 µM
- TGI [41]: 26.7 µM
- GI50 [42]: 4.11 µM
- TGI [42]: 17 µM
- GI50 [43]: 6.55 µM
- TGI [43]: 25.4 µM
- GI50 [44]: 16.6 µM
- TGI [44]: 31.4 µM
- GI50 [58]: 0.0233 µM
- TGI [58]: 0.107 µM
- GI50 [45]: 15.5 µM
- TGI [45]: 31.4 µM
- GI50 [46]: 13.6 µM
- TGI [46]: 27.3 µM
- GI50 [47]: 6.93 µM
- TGI [47]: 20.7 µM
- GI50 [48]: 0.907 µM
- TGI [48]: 8.36 µM
- GI50 [49]: 17.2 µM
- TGI [49]: 34.1 µM
- GI50 [50]: 3.54 µM
- TGI [50]: 21.4 µM
- GI50 [51]: 0.845 µM
- TGI [51]: 7.15 µM
- GI50 [52]: 14.7 µM
- TGI [52]: 28 µM
- GI50 [59]: 6.98 µM
- TGI [59]: 23.9 µM
- GI50 [53]: 0.487 µM
- TGI [53]: 12.5 µM
- GI50 [54]: 8.35 µM
- TGI [54]: 24.4 µM
